From patent US10265294B2, “Compositions and methods for treating epithelial cancer” (YALE UNIVERSITY, priority 2016, dated 2019)

How the values were obtained:
[1] = system: OCC2 (CD44-/MyD88- ovarian cancer cells); experiment: IC50 against chemosensitive ovarian cancer cells OCC2; assay type: cell-based, human; conditions: read-out: IC50 (percentage of viable cells)
Procedure: CD44+/MyD88+ ovarian cancer stem cell clones (OCSC1 and OCSC2) and CD44−/MyD88− ovarian cancer cells (OCC1 and OCC2) were isolated from either tumor tissue or ascites obtained from patients diagnosed with stage III/IV serous ovarian cancer and propagated (Alvero, et al., 2009, Cell Cycle 8:158-166; Chefetz, et al., 2013, Cell Cycle 12:511-521). The epithelial nature of the isolated cells was determined by immunostaining for Ck18. Purity of the cultures based on CD44 expression by flow cytometry and chemoresistance were routinely tested. […]
(§1) Effect of each compound on cell morphology, growth, and viability was assessed using a kinetic live cell imaging system (Incucyte, Essen Bioscience). Proliferation was calculated as previously described (Alvero, et al., 2011, Mol. Cancer Ther. 10:1385-1393) using metrics from either confluence or fluorescent count from nuclear-restricted RFP or GFP. Cell death was quantified; similarly CELLTOX® Green Cytotoxicity Assay (Promega, Madison, Wis.). IC50 was calculated as described using GraphPad Prism (GraphPad Software Inc., LaJolla, Calif.).
Once the efficacy of TRX-E-002-1 against chemoresistant OCSC was established, its activity against two clones of chemosensitive ovarian cancer cells (OCC1 and OCC2) was determined.

[2] = system: co-culture of RFP-labeled OCSC2 and GFP-labeled OCC2; experiment: In vitro co-culture model 50% RFP-OCSC2 / 50% GFP-OCC2; assay type: cell-based; conditions: co-culture 50/50; TRX-E-002-1 0.12 μM, Cisplatin 20 μM
Procedure: CD44+/MyD88+ ovarian cancer stem cell clones (OCSC1 and OCSC2) and CD44−/MyD88− ovarian cancer cells (OCC1 and OCC2) were isolated from either tumor tissue or ascites obtained from patients diagnosed with stage III/IV serous ovarian cancer and propagated (Alvero, et al., 2009, Cell Cycle 8:158-166; Chefetz, et al., 2013, Cell Cycle 12:511-521). The epithelial nature of the isolated cells was determined by immunostaining for Ck18. Purity of the cultures based on CD44 expression by flow cytometry and chemoresistance were routinely tested. Stable expression of nuclear-restricted red fluorescent (in OCSCs) or green fluorescent proteins (in OCCs) was performed by transduction using NUCLIGHT® Red or Green Lentivirus Reagent (Essen Bioscience, Ann Arbor, Mich.). Spheroids were formed from OCSCs by culturing in ultra-low attachment multi-well plates (Corning, Inc., Corning, N.Y.).
as §1
Without wishing to be limited by any theory, response to chemotherapy may be modified by cross-talk among different cancer cell types within the tumor. Thus, to mimic the heterogeneity of ovarian tumors an in vitro co-culture model consisting of RFP-labeled chemoresistant OCSC2 and GFP-labeled chemosensitive OCC2 was used. The co-cultures, which are comprised of 50% RFP-OCSC2 and 50% GFP-OCC2 at time of treatment, were exposed to TRX-E-002-1, cisplatin, or the combination of both. Since GFP-OCC2 has faster doubling time than RFP-OCSC2, it overtook the control co-cultures by the end of the experiment and thus the control co-cultures are mainly comprised of GFP-OCC2 by the 24 h time-point (FIG. 2B).

c-Jun = experiment: Phosphokinase array / Western blot for phosphorylated and total c-Jun in OCSCs; assay type: cell-based, human
Procedure: SDS-PAGE and Western blots were performed using 20 μg of total protein lysate as described in Kamsteeg, et al., 2003, Oncogene 22:2611-2620. Antibodies used were: mouse anti-phospho ERK (Santa Cruz Biotechnology, Inc., Dallas, Tex.); rabbit anti-phospho c-Jun, rabbit anti c-Jun, rabbit anti-ERK, rabbit anti-cleaved caspase 3 all from Cell Signaling Technology, Danvers, Mass.; and mouse anti-GAPDH (Sigma-Aldrich).
In order to elucidate the early pathways responsible for the sustained cytotoxic effect observed with TRX-E-002-1, a phosphokinase array was performed. The phosphokinase array detected relative phosphorylation levels of 43 different kinases involved in major signal transduction pathways.
The western blot results also validated the decrease in p-ERK in cells treated with TRX-E-002-1. […] The effect on the phosphorylation status of the kinases (upregulation of p-cJun and downregulation of p-ERK) was observed as early as 2 h post-treatment and maintained up to 24 h (FIG. 4A). The phosphorylation levels of c-Jun and ERK correlate with the differential ability of the two doses of TRX-E-002-1 to induce a sustained cytotoxic effect. […] This correlates with the ability of this dose of TRX-E-002-1 to maintain the upregulation of p-cJun and downregulation of p-ERK even when the compound is removed (FIG. 4B). […]

[3] = mouse, in vivo
Text: The Yale University Institutional Animal Care and Use Committee approved all in vivo studies described. Intra-peritoneal tumors were established in athymic nude mice using 4×10^6 mCherry+OCSC1-F2 ovarian cancer cells (Craveiro, et al., 2013, Cancer Med. 2:751-762). Injection of cancer cells is designated as day 0 and treatment commenced between day 3-5. Establishment of i.p. tumors was confirmed by live imaging (In-Vivo FX PRO, Bruker Corp., Billerica, Mass.) prior to treatment. TRX-E-002-1 was prepared in 20% Captisol or Dexsolve and administered daily at 50 mg/kg or 100 mg/kg. Paclitaxel was given at 12 mg/kg q3d and Cisplatin at 5 mg/kg weekly. All treatments were given i.p. Tumor growth was monitored q3d by live imaging and response to treatment was assessed using ROI area.
To determine activity against primary disease as well as to determine the maximum tolerated dose (MTD), a dose response study was performed. […] Animals however recovered from the distension upon cessation of treatment. […] Thus, the MTD was established at daily 100 mg/kg i.p. and this dose was employed for the succeeding studies employing combination treatment.

## COc1cc(C2COc3c(ccc(O)c3C)C2c2ccc(O)cc2)cc(OC)c1O (single isomer, unassigned) [TRX-E-002-1]
[1]
  IC50: 27 nM
[2]
  number of GFP+ cells (GFP-OCC2): markedly reduced
  number of mCherry+ cells (RFP-OCSC2): markedly reduced
c-Jun; Western blot time course
  total c-Jun: time-dependent increase
c-Jun; compared to controls, from 2 h up to 24 h post-treatment
  levels of phosphorylated c-Jun (p-c-Jun): higher levels
[3]
  toxicity at high concentrations in animal studies: evidence of some potential toxicity
[3]; ip
  maximum tolerated dose (MTD): 100 mg/kg
